From patent publication US9527869B2, “Indolizine derivatives as phoshoinositide 3-kinases inhibitors” (CHIESI FARMACEUTICI S.P.A., priority 2014, dated 2016)

Tests used:
Assay type in all cases: biochemical
PI3Kα = target: T1, PI3Kα (Homo sapiens, UniProt P42336); assay: In vitro determination of the PI3K enzyme inhibitory activity in the cell free assay (ADP-Glo Kinase Assay), PI3Kα; conditions: ATP 50 μM, read-out: PI3K alpha inhibition
T1 construct: purchased Millipore Ltd (Billerica, Mass.)
T1 sequence (P42336 whole entry): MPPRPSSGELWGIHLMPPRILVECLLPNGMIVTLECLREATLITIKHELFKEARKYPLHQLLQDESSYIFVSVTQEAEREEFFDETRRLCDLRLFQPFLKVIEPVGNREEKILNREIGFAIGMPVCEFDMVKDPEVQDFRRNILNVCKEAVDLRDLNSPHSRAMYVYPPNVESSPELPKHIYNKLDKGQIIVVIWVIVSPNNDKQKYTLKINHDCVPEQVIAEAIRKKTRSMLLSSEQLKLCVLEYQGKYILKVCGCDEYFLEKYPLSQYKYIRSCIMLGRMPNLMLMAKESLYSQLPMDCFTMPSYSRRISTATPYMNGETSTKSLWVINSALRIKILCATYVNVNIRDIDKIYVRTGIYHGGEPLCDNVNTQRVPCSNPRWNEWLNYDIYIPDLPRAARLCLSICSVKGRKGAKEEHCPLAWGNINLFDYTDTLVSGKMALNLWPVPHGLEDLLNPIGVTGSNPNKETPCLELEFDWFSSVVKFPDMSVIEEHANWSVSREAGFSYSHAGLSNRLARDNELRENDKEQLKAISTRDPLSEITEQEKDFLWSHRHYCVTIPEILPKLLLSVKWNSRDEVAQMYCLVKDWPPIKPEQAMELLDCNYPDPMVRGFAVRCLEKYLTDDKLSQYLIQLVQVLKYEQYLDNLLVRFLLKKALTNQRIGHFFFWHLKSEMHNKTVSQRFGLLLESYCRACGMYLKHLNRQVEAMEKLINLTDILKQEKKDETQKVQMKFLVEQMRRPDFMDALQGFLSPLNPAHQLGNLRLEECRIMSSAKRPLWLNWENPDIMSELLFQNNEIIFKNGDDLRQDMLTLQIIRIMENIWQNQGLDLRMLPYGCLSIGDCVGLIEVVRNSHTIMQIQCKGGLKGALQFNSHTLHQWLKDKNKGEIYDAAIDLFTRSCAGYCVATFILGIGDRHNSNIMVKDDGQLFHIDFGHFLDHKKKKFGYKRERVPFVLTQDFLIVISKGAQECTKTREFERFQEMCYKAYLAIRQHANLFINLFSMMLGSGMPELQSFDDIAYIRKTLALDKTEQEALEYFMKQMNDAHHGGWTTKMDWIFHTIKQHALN
T1 sequence (P27986 whole entry partner): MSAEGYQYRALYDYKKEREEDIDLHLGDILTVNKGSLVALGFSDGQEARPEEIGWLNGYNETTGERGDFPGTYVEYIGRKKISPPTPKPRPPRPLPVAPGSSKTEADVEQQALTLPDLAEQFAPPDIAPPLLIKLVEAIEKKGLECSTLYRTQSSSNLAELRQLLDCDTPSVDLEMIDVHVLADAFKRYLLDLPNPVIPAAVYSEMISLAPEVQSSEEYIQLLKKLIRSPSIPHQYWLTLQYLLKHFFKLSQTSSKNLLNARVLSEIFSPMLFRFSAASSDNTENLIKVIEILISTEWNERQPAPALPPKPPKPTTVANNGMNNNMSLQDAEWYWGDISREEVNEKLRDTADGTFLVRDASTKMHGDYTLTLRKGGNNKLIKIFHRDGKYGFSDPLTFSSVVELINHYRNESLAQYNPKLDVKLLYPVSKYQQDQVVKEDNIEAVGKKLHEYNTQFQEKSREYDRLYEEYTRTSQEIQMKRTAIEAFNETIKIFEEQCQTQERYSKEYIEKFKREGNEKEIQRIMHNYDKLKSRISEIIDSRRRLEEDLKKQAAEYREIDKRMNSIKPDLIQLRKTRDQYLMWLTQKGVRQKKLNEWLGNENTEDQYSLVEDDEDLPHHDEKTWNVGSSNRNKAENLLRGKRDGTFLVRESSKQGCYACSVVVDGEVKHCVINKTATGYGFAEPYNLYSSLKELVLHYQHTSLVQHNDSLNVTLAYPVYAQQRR
In short: (§1)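 IC50 values came from four-parameter logistic fitting of ADP-Glo luminescence after 60 min kinase reactions at room temperature. ATP (final) was set per isoform: α 50 μM, β 100 μM, γ 30 μM, δ 80 μM. Substrates were phosphatidylinositol and phosphatidylserine (50 μM in 2× Tris pH 7.5 buffer), with human recombinant enzymes.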

PI3Kβ = target: T2, PI3Kβ (Homo sapiens, UniProt P42338); assay: In vitro determination of the PI3K enzyme inhibitory activity in the cell free assay (ADP-Glo Kinase Assay), PI3Kβ; conditions: ATP 100 μM, read-out: PI3K beta inhibition
T2 construct: purchased Millipore Ltd (Billerica, Mass.)
T2 sequence (P42338 whole entry): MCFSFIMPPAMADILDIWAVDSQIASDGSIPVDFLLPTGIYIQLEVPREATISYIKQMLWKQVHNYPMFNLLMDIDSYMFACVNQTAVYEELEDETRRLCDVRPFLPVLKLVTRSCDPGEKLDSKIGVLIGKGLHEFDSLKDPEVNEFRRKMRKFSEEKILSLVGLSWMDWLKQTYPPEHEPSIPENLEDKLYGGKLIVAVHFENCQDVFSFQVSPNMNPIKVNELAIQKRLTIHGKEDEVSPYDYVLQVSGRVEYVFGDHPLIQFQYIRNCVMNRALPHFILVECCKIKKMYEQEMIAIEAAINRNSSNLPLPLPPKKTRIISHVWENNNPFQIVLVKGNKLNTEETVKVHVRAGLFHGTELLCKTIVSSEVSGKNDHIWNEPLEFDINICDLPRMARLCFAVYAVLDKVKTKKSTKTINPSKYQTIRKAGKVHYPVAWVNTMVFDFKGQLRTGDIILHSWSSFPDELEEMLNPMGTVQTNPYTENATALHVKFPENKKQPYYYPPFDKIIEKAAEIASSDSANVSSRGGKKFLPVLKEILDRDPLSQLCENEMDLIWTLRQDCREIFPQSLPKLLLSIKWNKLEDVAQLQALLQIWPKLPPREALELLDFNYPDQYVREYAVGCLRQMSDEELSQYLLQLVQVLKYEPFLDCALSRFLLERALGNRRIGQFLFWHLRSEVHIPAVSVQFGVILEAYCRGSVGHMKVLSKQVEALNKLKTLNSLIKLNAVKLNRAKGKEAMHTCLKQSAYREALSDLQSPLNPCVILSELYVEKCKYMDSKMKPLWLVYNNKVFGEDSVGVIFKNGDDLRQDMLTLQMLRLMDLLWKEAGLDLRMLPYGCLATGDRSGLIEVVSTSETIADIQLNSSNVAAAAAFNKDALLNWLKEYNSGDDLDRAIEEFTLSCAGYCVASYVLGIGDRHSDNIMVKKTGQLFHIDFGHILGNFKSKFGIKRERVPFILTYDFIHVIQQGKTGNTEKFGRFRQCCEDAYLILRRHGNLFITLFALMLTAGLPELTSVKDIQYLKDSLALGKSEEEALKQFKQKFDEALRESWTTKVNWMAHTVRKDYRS
T2 sequence (P27986 whole entry partner): as the sequence (P27986 whole entry partner) above
In short: as §1

PI3Kγ = target: T3, PI3Kγ (Homo sapiens, UniProt P48736); assay: In vitro determination of the PI3K enzyme inhibitory activity in the cell free assay (ADP-Glo Kinase Assay), PI3Kγ; conditions: ATP 30 μM, read-out: PI3K gamma inhibition
T3 construct: purchased Millipore Ltd (Billerica, Mass.)
T3 sequence (P48736 whole entry): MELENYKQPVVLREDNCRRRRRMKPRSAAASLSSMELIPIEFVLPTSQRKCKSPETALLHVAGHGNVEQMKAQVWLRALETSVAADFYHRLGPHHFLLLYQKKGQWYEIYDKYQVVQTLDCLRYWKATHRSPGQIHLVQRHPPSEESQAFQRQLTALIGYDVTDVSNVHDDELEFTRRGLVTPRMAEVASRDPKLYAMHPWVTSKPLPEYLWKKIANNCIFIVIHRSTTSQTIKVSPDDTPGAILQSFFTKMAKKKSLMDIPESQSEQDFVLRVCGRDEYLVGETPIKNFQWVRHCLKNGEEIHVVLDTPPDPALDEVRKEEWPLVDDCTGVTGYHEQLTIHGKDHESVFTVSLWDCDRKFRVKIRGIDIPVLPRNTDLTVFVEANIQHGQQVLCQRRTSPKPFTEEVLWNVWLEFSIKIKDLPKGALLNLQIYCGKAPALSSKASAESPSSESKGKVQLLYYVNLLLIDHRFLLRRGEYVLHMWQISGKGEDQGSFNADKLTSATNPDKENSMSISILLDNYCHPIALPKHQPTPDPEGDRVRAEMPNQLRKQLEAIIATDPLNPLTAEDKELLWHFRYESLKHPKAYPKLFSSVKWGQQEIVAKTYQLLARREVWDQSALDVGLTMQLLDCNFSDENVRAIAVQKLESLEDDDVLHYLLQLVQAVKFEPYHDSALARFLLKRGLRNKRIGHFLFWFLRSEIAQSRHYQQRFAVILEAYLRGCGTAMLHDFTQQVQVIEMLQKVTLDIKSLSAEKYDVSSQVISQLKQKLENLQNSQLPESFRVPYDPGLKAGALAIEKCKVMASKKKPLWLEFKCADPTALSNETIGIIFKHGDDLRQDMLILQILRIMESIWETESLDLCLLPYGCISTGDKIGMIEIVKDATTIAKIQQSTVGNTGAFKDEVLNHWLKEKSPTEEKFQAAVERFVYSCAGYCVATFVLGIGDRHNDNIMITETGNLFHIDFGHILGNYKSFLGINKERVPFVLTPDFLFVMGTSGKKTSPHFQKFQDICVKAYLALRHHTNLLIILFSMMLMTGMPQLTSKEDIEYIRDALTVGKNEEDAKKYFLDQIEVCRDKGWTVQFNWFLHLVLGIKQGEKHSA
In short: as §1

PI3Kδ = target: T4, PI3Kδ (Homo sapiens, UniProt O00329); assay: In vitro determination of the PI3K enzyme inhibitory activity in the cell free assay (ADP-Glo Kinase Assay), PI3Kδ; conditions: ATP 80 μM, read-out: PI3K delta inhibition
T4 construct: purchased Millipore Ltd (Billerica, Mass.)
T4 sequence (O00329 whole entry): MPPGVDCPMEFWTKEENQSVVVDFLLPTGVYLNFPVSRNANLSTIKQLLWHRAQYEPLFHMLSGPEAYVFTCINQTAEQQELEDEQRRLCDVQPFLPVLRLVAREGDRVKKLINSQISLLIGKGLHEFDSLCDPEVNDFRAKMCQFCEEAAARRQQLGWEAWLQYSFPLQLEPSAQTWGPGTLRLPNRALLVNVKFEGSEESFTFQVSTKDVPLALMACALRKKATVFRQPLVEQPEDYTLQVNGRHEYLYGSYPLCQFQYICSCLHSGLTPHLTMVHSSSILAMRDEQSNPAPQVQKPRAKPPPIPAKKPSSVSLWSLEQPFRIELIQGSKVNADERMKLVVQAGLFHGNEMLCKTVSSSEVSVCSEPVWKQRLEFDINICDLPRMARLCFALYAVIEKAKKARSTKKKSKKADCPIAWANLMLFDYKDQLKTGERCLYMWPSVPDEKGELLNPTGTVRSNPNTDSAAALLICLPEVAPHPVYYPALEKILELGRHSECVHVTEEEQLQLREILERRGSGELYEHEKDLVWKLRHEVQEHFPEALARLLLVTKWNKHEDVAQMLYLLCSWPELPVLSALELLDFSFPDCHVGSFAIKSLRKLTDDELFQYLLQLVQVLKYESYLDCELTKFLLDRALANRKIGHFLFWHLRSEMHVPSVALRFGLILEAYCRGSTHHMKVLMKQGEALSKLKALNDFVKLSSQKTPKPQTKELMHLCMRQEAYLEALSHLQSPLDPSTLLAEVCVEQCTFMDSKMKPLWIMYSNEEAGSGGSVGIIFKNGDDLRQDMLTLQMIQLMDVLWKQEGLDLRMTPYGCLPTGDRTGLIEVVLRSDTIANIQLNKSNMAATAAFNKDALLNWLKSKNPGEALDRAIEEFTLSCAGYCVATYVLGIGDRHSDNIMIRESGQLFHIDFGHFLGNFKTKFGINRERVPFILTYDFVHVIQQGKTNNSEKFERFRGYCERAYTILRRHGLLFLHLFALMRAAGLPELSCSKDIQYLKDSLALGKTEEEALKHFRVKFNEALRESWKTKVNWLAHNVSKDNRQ
T4 sequence (P27986 whole entry partner): as the sequence (P27986 whole entry partner) above
In short: as §1

For `CC(c1cc2ccccn2c1-c1cscn1)n1nc(-c2cc(O)cc(F)c2)c2c(N)ncnc21` (stereo not drawn) [Example 129, 3-(4-amino-1-{1-[3-(1,3-thiazol-4-yl)indolizin-2-yl]-ethyl}-1H-pyrazolo[3,4-d]pyrimidin-3-yl)-5-fluorophenol], the IC50 (PI3Kα) was 10 to 1000 nM, the IC50 (PI3Kβ) was 10 to 1000 nM and the IC50 (PI3Kγ) was 10 to 1000 nM. The IC50 (PI3Kδ) was 10 to 1000 nM.
`CC(c1cc2ccccn2c1-c1csc(CN2CCOCC2)n1)n1nc(-c2cc(O)cc(F)c2)c2c(N)ncnc21` (stereo not drawn) [Example 130, 3-[4-amino-1-(1-{3-[2-(morpholin-4-ylmethyl)-1,3-thiazol-4-yl]indolizin-2-yl}ethyl)-1H-pyrazolo-[3,4-d]pyrimidin-3-yl]-5-fluorophenol] was tested, and the IC50 (PI3Kα) was > 1000 nM, the IC50 (PI3Kβ) was 10 to 1000 nM and the IC50 (PI3Kγ) was 10 to 1000 nM. For the same molecule, the IC50 (PI3Kδ) was < 10 nM.
`CC(c1cc2ccccn2c1C#CCN(C)C)n1nc(-c2cc(O)cc(F)c2)c2c(N)ncnc21` (stereo not drawn) [Example 131, 3-[4-amino-1-(1-{3-[3-(dimethylamino)prop-1-yn-1-yl]indolizin-2-yl}ethyl)-1H-pyrazolo[3,4-d]-pyrimidin-3-yl]-5-fluorophenol] was tested, and the IC50 (PI3Kα) was 10 to 1000 nM, the IC50 (PI3Kβ) was 10 to 1000 nM and the IC50 (PI3Kγ) was 10 to 1000 nM. For the same molecule, the IC50 (PI3Kδ) was 10 to 1000 nM.
`CC(c1cc2ccccn2c1N1CCN(C)CC1=O)n1nc(-c2cc(O)cc(F)c2)c2c(N)ncnc21` (stereo not drawn) [Example 132, 1-(2-{1-[4-amino-3-(3-fluoro-5-hydroxyphenyl)-1H-pyrazolo[3,4-d]pyrimidin-1-yl]-ethyl}indolizin-3-yl)-4-methylpiperazin-2-one] was tested, and the IC50 (PI3Kα) was 10 to 1000 nM, the IC50 (PI3Kβ) was 10 to 1000 nM and the IC50 (PI3Kγ) was 10 to 1000 nM. For the same molecule, the IC50 (PI3Kδ) was < 10 nM.
`CC(c1cc2ccccn2c1-c1ccn(CCN(C)C)c(=O)c1)n1nc(-c2cc(O)cc(F)c2)c2c(N)ncnc21` (stereo not drawn) [Example 133, 4-(2-{1-[4-amino-3-(3-fluoro-5-hydroxyphenyl)-1H-pyrazolo[3,4-d]pyrimidin-1-yl]-ethyl}indolizin-3-yl)-1-[2-(dimethylamino)-ethyl]-1,2-dihydropyridin-2-one] was tested, and the IC50 (PI3Kα) was > 1000 nM, the IC50 (PI3Kβ) was 10 to 1000 nM and the IC50 (PI3Kγ) was 10 to 1000 nM. The IC50 (PI3Kδ) was < 10 nM.
With `CC(c1cc2ccccn2c1-c1ccc(=O)n(CCN2CCCC2)n1)n1nc(-c2cc(O)cc(F)c2)c2c(N)ncnc21` (stereo not drawn) [Example 134, 6-(2-{1-[4-amino-3-(3-fluoro-5-hydroxyphenyl)-1H-pyrazolo[3,4-d]pyrimidin-1-yl]-ethyl}indolizin-3-yl)-2-[2-(pyrrolidin-1-yl)-ethyl]-2,3-dihydropyridazin-3-one] the IC50 (PI3Kα) was > 1000 nM, the IC50 (PI3Kβ) was 10 to 1000 nM and the IC50 (PI3Kγ) was > 1000 nM. For the same molecule, the IC50 (PI3Kδ) was < 10 nM.
`CC(c1cc2ccccn2c1-c1ccc(=O)n(CCN2CCN(C)CC2)n1)n1nc(-c2cc(O)cc(F)c2)c2c(N)ncnc21` (stereo not drawn) [Example 135, 6-(2-{1-[4-amino-3-(3-fluoro-5-hydroxyphenyl)-1H-pyrazolo[3,4-d]pyrimidin-1-yl]-ethyl}indolizin-3-yl)-2-[2-(4-methylpiperazin-1-yl)ethyl]-2,3-dihydropyridazin-3-one] was tested, and the IC50 (PI3Kα) was > 1000 nM, the IC50 (PI3Kβ) was 10 to 1000 nM and the IC50 (PI3Kγ) was > 1000 nM. For the same molecule, the IC50 (PI3Kδ) was 10 to 1000 nM.
With `CC(c1cc2ccccn2c1-c1ccc(=O)n(CCN2CCOCC2)n1)n1nc(-c2cc(O)cc(F)c2)c2c(N)ncnc21` (stereo not drawn) [Example 136, 6-(2-{1-[4-amino-3-(3-fluoro-5-hydroxyphenyl)-1H-pyrazolo[3,4-d]pyrimidin-1-yl]-ethyl}indolizin-3-yl)-2-[2-(morpholin-4-yl)ethyl]-2,3-dihydropyridazin-3-one] the IC50 (PI3Kα) was 10 to 1000 nM, the IC50 (PI3Kβ) was 10 to 1000 nM and the IC50 (PI3Kγ) was > 1000 nM. For the same molecule, the IC50 (PI3Kδ) was 10 to 1000 nM.
In the case of `CC(c1cc2ccccn2c1-c1ccc(OCCN2CCN(C)CC2)nn1)n1nc(-c2cc(O)cc(F)c2)c2c(N)ncnc21` (stereo not drawn) [Example 137, 3-{4-amino-1-[1-(3-{6-[2-(4-methylpiperazin-1-yl)ethoxy]pyridazin-3-yl}indolizin-2-yl)-ethyl]-1H-pyrazolo[3,4-d]pyrimidin-3-yl}-5-fluorophenol], the IC50 (PI3Kα) is reported as > 1000 nM, the IC50 (PI3Kβ) is reported as 10 to 1000 nM and the IC50 (PI3Kγ) is reported as > 1000 nM. For the same molecule, the IC50 (PI3Kδ) was < 10 nM.
Molecule `CC(c1cc2ccccn2c1-c1ccc(OCCN(C)C)nn1)n1nc(-c2cc(O)cc(F)c2)c2c(N)ncnc21` (stereo not drawn) [Example 138, 3-{4-amino-1-[1-(3-{6-[2-(dimethylamino)-ethoxy]pyridazin-3-yl}indolizin-2-yl)-ethyl]-1H-pyrazolo[3,4-d]pyrimidin-3-yl}-5-fluorophenol] has an IC50 (PI3Kα) of 10 to 1000 nM, an IC50 (PI3Kβ) of 10 to 1000 nM and an IC50 (PI3Kγ) of 10 to 1000 nM. The IC50 (PI3Kδ) was < 10 nM.
With `CC(c1cc2ccccn2c1-c1ccc(OC2CCN(C)CC2)nn1)n1nc(-c2cc(O)cc(F)c2)c2c(N)ncnc21` (stereo not drawn) [Example 139, 3-{4-amino-1-[1-(3-{6-[(1-methylpiperidin-4-yl)oxy]pyridazin-3-yl}indolizin-2-yl)ethyl]-1H-pyrazolo-[3,4-d]pyrimidin-3-yl}-5-fluorophenol] the IC50 (PI3Kα) was > 1000 nM, the IC50 (PI3Kβ) was 10 to 1000 nM and the IC50 (PI3Kγ) was > 1000 nM. For the same molecule, the IC50 (PI3Kδ) was 10 to 1000 nM.
With `CC(c1cc2ccccn2c1-c1ccc(OCCC2CCN(C)CC2)nn1)n1nc(-c2cc(O)cc(F)c2)c2c(N)ncnc21` (stereo not drawn) [Example 140, 3-{4-amino-1-[1-(3-{6-[2-(1-methylpiperidin-4-yl)ethoxy]pyridazin-3-yl}indolizin-2-yl)-ethyl]-1H-pyrazolo[3,4-d]pyrimidin-3-yl}-5-fluorophenol] the IC50 (PI3Kα) was > 1000 nM, the IC50 (PI3Kβ) was 10 to 1000 nM and the IC50 (PI3Kγ) was > 1000 nM. It also gave an IC50 (PI3Kδ) of 10 to 1000 nM.
`CC(c1cc2ccccn2c1CN1CCOCC1)n1nc(-c2cc(O)cc(F)c2)c2c(N)ncnc21` (stereo not drawn) [Example 141, 3-(4-amino-1-{1-[3-(morpholin-4-ylmethyl)indolizin-2-yl]ethyl}-1H-pyrazolo[3,4-d]-pyrimidin-3-yl)-5-fluorophenol] gave an IC50 (PI3Kα) of 10 to 1000 nM, an IC50 (PI3Kβ) of 10 to 1000 nM and an IC50 (PI3Kγ) of 10 to 1000 nM. For the same molecule, the IC50 (PI3Kδ) was < 10 nM.
For `CC(c1cc2ccccn2c1CN1CCC2(CCCN(C)C2)CC1)n1nc(-c2cc(O)cc(F)c2)c2c(N)ncnc21` (stereo not drawn) [Example 142, 3-(4-amino-1-{1-[3-({2-methyl-2,9-diazaspiro[5.5]-undecan-9-yl}methyl)indolizin-2-yl]ethyl}-1H-pyrazolo[3,4-d]-pyrimidin-3-yl)-5-fluorophenol], the IC50 (PI3Kα) was > 1000 nM, the IC50 (PI3Kβ) was > 1000 nM and the IC50 (PI3Kγ) was 10 to 1000 nM. The IC50 (PI3Kδ) was 10 to 1000 nM.
In the case of `CC(c1cc2ccccn2c1CN1CCC2(CCN(C)CC2)CC1)n1nc(-c2cc(O)cc(F)c2)c2c(N)ncnc21` (stereo not drawn) [Example 143, 3-(4-amino-1-{1-[3-({9-methyl-3,9-diazaspiro[5.5]undecan-3-yl}methyl)indolizin-2-yl]ethyl}-1H-pyrazolo[3,4-d]pyrimidin-3-yl)-5-fluorophenol], the IC50 (PI3Kα) is reported as 10 to 1000 nM, the IC50 (PI3Kβ) is reported as 10 to 1000 nM and the IC50 (PI3Kγ) is reported as 10 to 1000 nM. The IC50 (PI3Kδ) was < 10 nM.
Molecule `CC(c1cc2ccccn2c1CN1CC2(CCN(C)CC2)C1)n1nc(-c2cc(O)cc(F)c2)c2c(N)ncnc21` (stereo not drawn) [Example 144, 3-(4-amino-1-{1-[3-({7-methyl-2,7-diazaspiro[3.5]nonan-2-yl}methyl)indolizin-2-yl]ethyl}-1H-pyrazolo[3,4-d]pyrimidin-3-yl)-5-fluorophenol] has an IC50 (PI3Kα) of 10 to 1000 nM, an IC50 (PI3Kβ) of 10 to 1000 nM and an IC50 (PI3Kγ) of 10 to 1000 nM. It also gave an IC50 (PI3Kδ) of 10 to 1000 nM.
Work on `CC(c1cc2ccccn2c1CN1C[C@H]2CN(C)C[C@H]2C1)n1nc(-c2cc(O)cc(F)c2)c2c(N)ncnc21` (stereo partly drawn) [Example 145, 3-{1-[1-(3-{[(3aR,6aS)-5-methyl-octahydropyrrolo[3,4-c]pyrrol-2-yl]methyl}indolizin-2-yl)ethyl]-4-amino-1H-pyrazolo[3,4-d]pyrimidin-3-yl}-5-fluorophenol] yielded an IC50 (PI3Kα) of 10 to 1000 nM, an IC50 (PI3Kβ) of 10 to 1000 nM and an IC50 (PI3Kγ) of 10 to 1000 nM. For the same molecule, the IC50 (PI3Kδ) was 10 to 1000 nM.
With `CC(c1cc2ccccn2c1-c1ccn(CCN(C)C)n1)n1nc(-c2cc(O)cc(F)c2)c2c(N)ncnc21` (stereo not drawn) [Example 147, 3-{4-amino-1-[1-(3-{1-[2-(dimethylamino)-ethyl]-1H-pyrazol-3-yl}indolizin-2-yl)-ethyl]-1H-pyrazolo[3,4-d]pyrimidin-3-yl}-5-fluorophenol] the IC50 (PI3Kα) was 10 to 1000 nM, the IC50 (PI3Kβ) was 10 to 1000 nM and the IC50 (PI3Kγ) was > 1000 nM. For the same molecule, the IC50 (PI3Kδ) was < 10 nM.
`CC(c1cc2ccccn2c1-c1ccn(CCN2CCN(C)CC2)n1)n1nc(-c2cc(O)cc(F)c2)c2c(N)ncnc21` (stereo not drawn) [Example 148, 3-{4-amino-1-[1-(3-{1-[2-(4-methylpiperazin-1-yl)ethyl]-1H-pyrazol-3-yl}indolizin-2-yl)-ethyl]-1H-pyrazolo[3,4-d]pyrimidin-3-yl}-5-fluorophenol] gave an IC50 (PI3Kα) of 10 to 1000 nM, an IC50 (PI3Kβ) of 10 to 1000 nM and an IC50 (PI3Kγ) of 10 to 1000 nM. The IC50 (PI3Kδ) was < 10 nM.
With `CC(c1cc2ccccn2c1-c1ccn(CCN(CCO)CCO)n1)n1nc(-c2cc(O)cc(F)c2)c2c(N)ncnc21` (stereo not drawn) [Example 149, 3-(4-amino-1-{1-[3-(1-{2-[bis(2-hydroxyethyl)amino]ethyl}-1H-pyrazol-3-yl)indolizin-2-yl]ethyl}-1H-pyrazolo[3,4-d]pyrimidin-3-yl)-5-fluorophenol] the IC50 (PI3Kα) was > 1000 nM, the IC50 (PI3Kβ) was 10 to 1000 nM and the IC50 (PI3Kγ) was 10 to 1000 nM. For the same molecule, the IC50 (PI3Kδ) was < 10 nM.
In the case of `CC(c1cc2ccccn2c1-c1ccn(CCN2CCOCC2)n1)n1nc(-c2cc(O)cc(F)c2)c2c(N)ncnc21` (stereo not drawn) [Example 150, 3-{4-amino-1-[1-(3-{1-[2-(morpholin-4-yl)ethyl]-1H-pyrazol-3-yl}indolizin-2-yl)ethyl]-1H-pyrazolo-[3,4-d]pyrimidin-3-yl}-5-fluorophenol], the IC50 (PI3Kα) is reported as > 1000 nM, the IC50 (PI3Kβ) is reported as 10 to 1000 nM and the IC50 (PI3Kγ) is reported as 10 to 1000 nM. For the same molecule, the IC50 (PI3Kδ) was < 10 nM.
